Data published in publication PMC6458995, “MAP4K4 Inhibition Promotes Survival of Human Stem Cell-Derived Cardiomyocytes and Reduces Infarct Size In Vivo” (Cell Stem Cell, 2019).
Where two headings read alike, the source gives them in different places.

What was measured:
recombinant human MAP4K4 = biological target: T1, recombinant human MAP4K4 (Homo sapiens, UniProt O95819); experiment: In vitro MAP4K4 kinase activity assay (HTRF Transcreener ADP); assay type: biochemical
T1 construct: Human MAP4K4 kinase domain (aa 1-328); purchased Invitrogen PV3687
T1 sequence (O95819 1-328): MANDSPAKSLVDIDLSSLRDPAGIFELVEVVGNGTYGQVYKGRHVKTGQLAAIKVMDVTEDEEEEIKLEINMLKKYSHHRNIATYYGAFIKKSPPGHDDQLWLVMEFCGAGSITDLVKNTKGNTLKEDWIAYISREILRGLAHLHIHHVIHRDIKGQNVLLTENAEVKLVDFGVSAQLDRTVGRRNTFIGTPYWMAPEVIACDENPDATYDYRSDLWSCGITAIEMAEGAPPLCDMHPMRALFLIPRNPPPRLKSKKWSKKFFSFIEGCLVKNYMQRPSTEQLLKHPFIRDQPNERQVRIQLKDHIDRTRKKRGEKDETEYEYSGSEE
Method: MAP4K4 kinase activity was monitored using the CisBio HTRF Transcreener ADP assay, a competitive immunoassay with a reproducible Z’ > 0.6. In the detection step, endogenous ADP and d2-labeled ADP compete for binding an anti-ADP monoclonal antibody labeled with Eu^3+ cryptate. […] Assays were run in Greiner low volume plates with a final reaction volume of 10 μl. Percent inhibition was calculated from 100% activity of MAP4K4 (DMSO only) and 0% activity (no enzyme added). Data were either reported as % inhibition at a single dose or as pIC50 values derived from dose response curves (pIC50 = -log[IC50]).

AMPK = experiment: Dundee kinase panel; assay type: biochemical, human; details: 1 μM
Method: (§1) Compounds were screened at 1 μM. For key hits, pIC50 values were then determined by HTRF as above. […] Stability in mouse and human liver microsomes was determined by Cyprotex.

PHK = experiment: Dundee kinase panel; assay type: biochemical, human; details: 1 μM
Method: as §1

MINK1/MAP4K6 = MINK1/MAP4K6 (Homo sapiens, UniProt Q8N4C8); experiment: HTRF Transcreener ADP kinase assay; assay type: biochemical
Sequence of MINK1/MAP4K6 (Q8N4C8 whole entry): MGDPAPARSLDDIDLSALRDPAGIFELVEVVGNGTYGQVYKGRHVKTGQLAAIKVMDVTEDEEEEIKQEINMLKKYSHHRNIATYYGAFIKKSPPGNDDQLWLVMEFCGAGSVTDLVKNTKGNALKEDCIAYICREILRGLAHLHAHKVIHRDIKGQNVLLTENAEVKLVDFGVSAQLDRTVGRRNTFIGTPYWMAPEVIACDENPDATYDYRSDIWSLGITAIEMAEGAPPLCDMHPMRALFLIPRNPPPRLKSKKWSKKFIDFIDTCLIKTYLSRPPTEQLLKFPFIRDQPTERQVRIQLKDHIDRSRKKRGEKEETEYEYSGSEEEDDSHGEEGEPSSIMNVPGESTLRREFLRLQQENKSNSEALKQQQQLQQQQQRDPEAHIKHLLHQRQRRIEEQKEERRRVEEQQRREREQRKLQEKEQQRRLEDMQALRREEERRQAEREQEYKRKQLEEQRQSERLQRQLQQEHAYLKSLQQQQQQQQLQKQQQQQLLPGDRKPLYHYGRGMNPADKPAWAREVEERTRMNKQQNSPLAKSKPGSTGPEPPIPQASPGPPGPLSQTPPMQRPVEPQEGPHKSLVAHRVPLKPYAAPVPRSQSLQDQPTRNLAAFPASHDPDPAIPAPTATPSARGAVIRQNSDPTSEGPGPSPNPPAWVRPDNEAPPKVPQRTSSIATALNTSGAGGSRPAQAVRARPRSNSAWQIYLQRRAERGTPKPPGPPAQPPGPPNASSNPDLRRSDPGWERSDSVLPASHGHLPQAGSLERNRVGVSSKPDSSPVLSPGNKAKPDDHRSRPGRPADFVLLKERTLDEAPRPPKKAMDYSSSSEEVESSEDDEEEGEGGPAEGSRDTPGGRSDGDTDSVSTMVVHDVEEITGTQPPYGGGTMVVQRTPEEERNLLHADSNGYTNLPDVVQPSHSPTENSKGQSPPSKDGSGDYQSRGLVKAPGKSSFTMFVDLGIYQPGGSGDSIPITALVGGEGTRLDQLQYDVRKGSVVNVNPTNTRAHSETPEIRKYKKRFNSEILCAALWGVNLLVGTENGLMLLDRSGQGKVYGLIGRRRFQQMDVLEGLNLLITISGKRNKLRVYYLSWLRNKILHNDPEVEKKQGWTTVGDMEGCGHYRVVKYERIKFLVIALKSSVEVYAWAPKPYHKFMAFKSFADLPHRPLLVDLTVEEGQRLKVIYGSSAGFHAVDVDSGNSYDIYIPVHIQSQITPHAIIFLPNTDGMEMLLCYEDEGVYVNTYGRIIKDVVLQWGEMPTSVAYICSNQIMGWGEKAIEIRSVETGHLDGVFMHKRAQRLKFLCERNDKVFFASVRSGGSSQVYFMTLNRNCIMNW
Method: (§2) In the detection step, endogenous ADP and d2-labeled ADP compete for binding an anti-ADP monoclonal antibody labeled with Eu^3+ cryptate. A ratiometric fluorescent readout is used at 665 and 620 nm. […] Assays were run in Greiner low volume plates with a final reaction volume of 10 μl. […] Data were either reported as % inhibition at a single dose or as pIC50 values derived from dose response curves (pIC50 = -log[IC50]). Kinase selectivity profiling was performed by the International Centre for Kinase Profiling, MRC Protein Phosphorylation and Ubiquitylation Unit (141 kinases; Premier Screen, http://www.kinase-screen.mrc.ac.uk), using a [γ-^33P]ATP filter binding assay ([Bain et al., 2007]). Compounds were screened at 1 μM. For key hits, pIC50 values were then determined by HTRF as above. […] Stability in mouse and human liver microsomes was determined by Cyprotex.

TNIK/MAP4K7 = TNIK/MAP4K7 (Homo sapiens, UniProt Q9UKE5); experiment: HTRF Transcreener ADP kinase assay; assay type: biochemical
Sequence of TNIK/MAP4K7 (Q9UKE5 whole entry): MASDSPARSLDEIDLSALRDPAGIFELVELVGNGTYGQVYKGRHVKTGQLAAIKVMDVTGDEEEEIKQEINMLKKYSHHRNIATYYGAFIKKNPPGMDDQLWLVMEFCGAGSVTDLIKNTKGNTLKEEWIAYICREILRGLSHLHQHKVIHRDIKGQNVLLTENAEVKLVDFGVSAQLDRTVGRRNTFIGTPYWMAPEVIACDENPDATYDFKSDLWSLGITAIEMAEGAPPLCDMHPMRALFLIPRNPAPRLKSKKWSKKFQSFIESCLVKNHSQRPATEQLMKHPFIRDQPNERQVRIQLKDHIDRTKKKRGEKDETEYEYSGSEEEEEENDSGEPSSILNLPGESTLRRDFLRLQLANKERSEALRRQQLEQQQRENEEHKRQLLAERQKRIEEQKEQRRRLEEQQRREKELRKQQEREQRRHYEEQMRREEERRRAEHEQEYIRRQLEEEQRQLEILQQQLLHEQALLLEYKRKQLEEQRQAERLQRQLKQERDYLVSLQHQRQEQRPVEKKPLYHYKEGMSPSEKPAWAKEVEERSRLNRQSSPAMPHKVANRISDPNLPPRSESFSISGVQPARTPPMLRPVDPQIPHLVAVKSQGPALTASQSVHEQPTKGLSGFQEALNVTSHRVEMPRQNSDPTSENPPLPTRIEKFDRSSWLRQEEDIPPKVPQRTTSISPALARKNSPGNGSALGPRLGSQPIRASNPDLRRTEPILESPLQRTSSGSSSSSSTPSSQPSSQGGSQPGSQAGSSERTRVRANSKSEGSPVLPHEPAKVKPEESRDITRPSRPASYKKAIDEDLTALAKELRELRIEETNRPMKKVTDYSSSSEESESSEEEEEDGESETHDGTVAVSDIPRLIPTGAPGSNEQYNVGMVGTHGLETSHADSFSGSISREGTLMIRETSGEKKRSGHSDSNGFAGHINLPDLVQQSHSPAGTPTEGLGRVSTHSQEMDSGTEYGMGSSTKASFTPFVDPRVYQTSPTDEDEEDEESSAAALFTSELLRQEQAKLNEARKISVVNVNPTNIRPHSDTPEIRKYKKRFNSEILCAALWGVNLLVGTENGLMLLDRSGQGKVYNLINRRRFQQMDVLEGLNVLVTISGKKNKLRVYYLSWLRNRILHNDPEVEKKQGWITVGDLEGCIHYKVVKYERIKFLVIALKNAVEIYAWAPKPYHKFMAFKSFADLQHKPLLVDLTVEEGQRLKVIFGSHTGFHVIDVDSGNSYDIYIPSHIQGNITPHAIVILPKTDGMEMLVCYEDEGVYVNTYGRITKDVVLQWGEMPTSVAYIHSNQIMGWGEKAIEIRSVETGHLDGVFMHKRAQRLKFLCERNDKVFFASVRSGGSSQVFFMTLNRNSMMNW
Method: as §2

Oral PK = assay type: in vivo, female CD-1 mice; details: for AUC(0-inf) / Cmax / Tmax / half-life: female, CD-1, mouse, mice, plasma
Method: In vivo pharmacokinetic profiling was performed in female CD-1 mice, using 3 animals per time point. First, 30% w/v Kleptose as excipient was dissolved in water and vortexed gently for several min. Next, 30 mg of the test compound was dissolved into 0.6 mL of DMSO, for a concentration of 50 mg ml^-1, and 4.5 mL of the Kleptose solution was added to 0.5 mL of the test compound solution. A precipitate forms, which re-dissolves over 2-5 min, leaving a clear or slightly hazy solution with a final concentration of 5 mg ml^-1. The dosing solution is used as soon as practicable, vortexing immediately prior to use. This amount was sufficient formulation for 25 doses of 200 μL (20 g mouse). Compounds were administered orally at 50 mg kg^-1, with terminal blood (plasma) sampling at 10 min, 30 min, 1 h, 2.5 h, 5 h, 10 h, and 20 h.

ULK2 = biological target: T2, ULK2 (Homo sapiens, UniProt Q8IYT8); experiment: Dundee kinase panel; assay type: biochemical; details: for remaining activity at 1 µM: read-out: residual activity
T2 construct: lines 1-140) and Reaction Biology
T2 sequence (Q8IYT8 1-1036): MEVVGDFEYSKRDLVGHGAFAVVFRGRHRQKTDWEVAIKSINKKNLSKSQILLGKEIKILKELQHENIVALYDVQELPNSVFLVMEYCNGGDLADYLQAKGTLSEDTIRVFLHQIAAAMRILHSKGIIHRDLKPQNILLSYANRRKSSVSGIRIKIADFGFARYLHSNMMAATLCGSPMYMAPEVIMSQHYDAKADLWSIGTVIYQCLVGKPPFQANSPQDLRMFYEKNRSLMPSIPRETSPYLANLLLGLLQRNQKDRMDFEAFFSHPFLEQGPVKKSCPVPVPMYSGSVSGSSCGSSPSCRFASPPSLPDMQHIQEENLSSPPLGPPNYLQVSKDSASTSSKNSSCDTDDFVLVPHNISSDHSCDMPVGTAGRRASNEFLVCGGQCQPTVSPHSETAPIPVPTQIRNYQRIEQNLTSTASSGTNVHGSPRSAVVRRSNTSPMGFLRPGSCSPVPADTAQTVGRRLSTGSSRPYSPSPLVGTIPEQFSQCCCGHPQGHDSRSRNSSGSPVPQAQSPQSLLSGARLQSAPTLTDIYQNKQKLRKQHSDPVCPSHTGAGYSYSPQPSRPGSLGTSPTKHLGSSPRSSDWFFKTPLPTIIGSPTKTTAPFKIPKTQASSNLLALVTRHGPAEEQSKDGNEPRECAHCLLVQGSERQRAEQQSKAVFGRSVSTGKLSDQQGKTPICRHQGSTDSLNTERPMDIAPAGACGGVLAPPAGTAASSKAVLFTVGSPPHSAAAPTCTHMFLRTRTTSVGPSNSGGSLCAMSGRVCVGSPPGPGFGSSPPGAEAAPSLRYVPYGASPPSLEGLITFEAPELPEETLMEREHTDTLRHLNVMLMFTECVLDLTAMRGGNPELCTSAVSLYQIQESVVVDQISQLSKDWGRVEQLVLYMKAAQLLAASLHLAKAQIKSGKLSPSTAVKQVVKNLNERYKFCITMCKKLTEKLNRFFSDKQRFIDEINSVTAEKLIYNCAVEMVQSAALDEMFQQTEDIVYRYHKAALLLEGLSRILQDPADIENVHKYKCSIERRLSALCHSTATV
Method: Kinase selectivity profiling was performed by the International Centre for Kinase Profiling, MRC Protein Phosphorylation and Ubiquitylation Unit (141 kinases; Premier Screen, http://www.kinase-screen.mrc.ac.uk), using a [γ-^33P]ATP filter binding assay ([Bain et al., 2007]). Compounds were screened at 1 μM. For key hits, pIC50 values were then determined by HTRF as above. More complete kinome profiling was performed by Reaction Biology (376 kinases). Stability in mouse and human liver microsomes was determined by Cyprotex.

[1] = dose-response, Figure 2C, read-out: IC50 against recombinant human MAP4K4
[2] = MAP4K4, HTRF Transcreener ADP assay, read-out: pIC50 (converted)

## O=C1Nc2ccc(I)cc2/C1=C/c1cc(Br)c(O)c(Br)c1 [GW5074]
Recombinant human MAP4K4; [1]
  IC50: 0.03 µM
AMPK
  residual activity: 42%
PHK
  residual activity: 26%

## Oc1ncnc2c1c(-c1ccccc1)cn2-c1ccccc1 [F1386-0303, 5,7-diphenyl-7H-pyrrolo[2,3-d]pyrimidin-4-ol]
Recombinant human MAP4K4; [2]
  IC50: 0.0347 µM
Recombinant human MAP4K4; [1]
  IC50: 0.034 µM
MINK1/MAP4K6
  IC50: 0.038 µM
TNIK/MAP4K7
  IC50: 0.0933 µM
Oral PK; Oral PK (50 mg kg^−1)
  AUC(0-inf): 2.16 µM·h
  Cmax: 0.295 µM
  Tmax: 1 h
  half-life: 3.7 h
AMPK
  residual activity: 114%
PHK
  residual activity: 106%
ULK2
  remaining activity at 1 µM: 86%

## O=C1Cc2c([nH]c3ccc(Br)cc23)-c2ccccc2N1 [Kenpaullone]
Recombinant human MAP4K4; [1]
  IC50: 0.03 µM
AMPK
  residual activity: 64%
PHK
  residual activity: 20%

## COCCOc1ccc(-c2cn(-c3ccccc3)c3nc[nH]c(=O)c23)cc1 [DMX-5804, 5-[4-(2-methoxy-ethoxy)-phenyl]-7-phenyl-3,7-dihydro-pyrrolo[2,3-d]pyrimidin-4-one]
Recombinant human MAP4K4
  fold greater potency compared with F1386-0303: 10 fold
Recombinant human MAP4K4; [2]
  IC50: 0.00282 µM
MINK1/MAP4K6
  IC50: 0.00661 µM
TNIK/MAP4K7
  IC50: 0.011 µM
Oral PK; 50 mg kg^−1 oral dose, versus F1386-0303
  improvement of free plasma concentration over the initial inhibitor: more than 80 fold
Oral PK; Oral PK (50 mg kg^−1)
  AUC(0-inf): 63.7 µM·h
  Cmax: 13.8 µM
  Tmax: 1 h
  half-life: 1.8 h
Oral PK; ratio, Oral PK (50 mg kg^−1)
  AUCinf, DMX-5804 versus F1386-0303: 29.48
  Cmax, DMX-5804 versus F1386-0303: 46.94
  Tmax, DMX-5804 versus F1386-0303: 1.00
  t1/2, DMX-5804 versus F1386-0303: 0.49
AMPK
  residual activity: 87%
PHK
  residual activity: 102%
ULK2
  remaining activity at 1 µM: 89%

## Nc1ncc(C(=O)NC2CN(C(=O)C3CC3)C2)c2ccc(-c3cccc(F)c3)nc12 [GNE-495]
AMPK
  residual activity: 81%
PHK
  residual activity: 96%
ULK2; 1 μM
  residual activity: 100%
